Test results reported in patent US11648205B1, “Buccal formulation of avanafil with enhanced bioavailability and prolonged duration” (King Abdulaziz University, priority 2022, dated 2023).
≈ marks a conversion by molar mass, not a printed value.

Test: Solubility study of AVA-solid dispersions in distilled water
Format: physicochemical
Conditions: thermodynamic from solid, shaking water bath 48 h
Experimental: A solubility study for the prepared solid dispersions was conducted separately in distilled water, as described previously, with full details published (34). In screw-capped vials, 10 mL of distilled water was placed, and an excess amount of either the pure drug or the prepared solid dispersions was added. The vials were kept in a shaking water bath, for 48 h, in a thermostatically controlled shaking water bath (Model 1031; GFL Corporation, Burgwedel, Germany). Samples from the vial were obtained and were determined in triplicate using spectrophotometric assay at λmax 285 nm, and the data were expressed as the average ± the standard deviation. The AVA-solid dispersion with the highest water solubility was determined and selected for further investigations. Powder X-ray Diffraction (PXRD)

- solubility at 48 h: 3 µg/mL (≈ 6.2 µM)
Compound: COc1ccc(CN=c2[nH]c(N3CCC[C@H]3CO)ncc2C(=O)NCc2ncccn2)cc1Cl [AVA, Avanafil]
